Tested on: gene expression in Col-0 seedling shoots
Assay: Microarray analysis (ATH1 Affymetrix) after BL or abrasin treatment
Type: in vivo, Arabidopsis
Conditions: 30 min
Procedure: FIG. 14: Clustering of gene expression profiles by QT-clust analysis. Clusters illustrating the major patterns of the data sets. Points: BIK-30: 30 μM abrasin 30 min; BL-30: 1 μM brassinolide 30 min; DMSO-30: control DMSO 30 min; BIK-120: 30 μM abrasin 120 min; BL-120: 1 μM brassinolide 120 min; DMSO-120: control DMSO 120 min.
Col-0 seeds were germinated vertically on ½ MS medium for 7 days under 16 h light/8 h dark cycles. The seedlings were overlaid with liquid ½ MS medium containing 1 μM brassinolide (BL, Fuji Chemical Industries, Ltd., Toyama, Japan), 30 μM abrasin (BIK, ChemBridge Corporation) and DMSO and treated for 30 and 120 min. The shoot parts were collected for RNA isolation. All sampling points were performed in three independent experiments. RNA was extracted using RNeasy kit (Qiagene). […] total RNA per array was used to hybridise the ATH1 Affymetrix Arabidopsis arrays according to standard procedure. The overrepresentation analyses were performed using BiNGO software (Maere et al., 2005).
We performed a microarray analysis using the Arabidopsis whole genome chip (Affymetix) to determine whether abrasin activated the expression of BR-inducible genes at transcriptional level. Wild-type Col-0 seedlings were exposed to 1 μM BL, 30 μM ABRASIN and DMSO (mock-treatment) for two time points (30 min and 120 min) and the shoot parts were collected for RNA isolation. The analysis of the variance of the normalized gene expression data took in account the variability parameters affecting the expression level: type of hormone treatment, duration of treatment and the interaction between these two.

## O=C(O)CCC(=O)Nc1ccc(Br)cn1 [abrasin, 4-[(5-bromo-2-pyridinyl)amino]-4-oxobutanoic acid]
  Fold-change AT4G16563 aspartyl protease family protein: 1.16
  Fold-change AT4G16670 expressed protein: 0.79
  Fold-change AT4G16780 homeobox-leucine zipper protein 4 (HAT4)/HD-ZIP protein: 0.54
  Fold-change AT4G17250 expressed protein: 1.20
  Fold-change AT4G17460 homeobox-leucine zipper protein 1 (HAT1)/HD-ZIP protein 1: 0.29
  Fold-change AT4G21510 F-box family protein: 1.03
  Fold-change AT4G23030 MATE efflux protein-related: 1.60
  Fold-change AT4G23070 rhomboid family protein: 2.00
  Fold-change AT4G23810 WRKY family transcription factor: 5.76
  Fold-change AT4G24160 hydrolase, alpha/beta fold family protein: 1.42
  Fold-change AT4G25620 hydroxyproline-rich glycoprotein family protein: 0.51
  Fold-change AT4G25780 pathogenesis-related protein: 0.12
  Fold-change AT4G27970 C4-dicarboxylate transporter/malic acid transport family protein: 2.43
  Fold-change AT4G28240 wound-responsive protein-related: 0.49
  Fold-change AT4G28490 leucine-rich repeat transmembrane protein kinase, putative: 1.20
  Fold-change AT4G28703 expressed protein: 1.95
  Fold-change AT4G28780 GDSL-motif lipase/hydrolase family protein: 1.00
  Fold-change AT4G29070 expressed protein: 0.78
  Fold-change AT4G30080 transcriptional factor B3 family protein: 0.89
  Fold-change AT4G31020 expressed protein: 2.67
  Fold-change AT4G32280 auxin-responsive AUX/IAA family protein (IAA29): 0.32
  Fold-change AT4G33050 calmodulin-binding family protein: 2.38
  Fold-change AT4G33700 CBS domain-containing protein: 0.73
  Fold-change AT4G34610 homeodomain-containing protein: 1.02
  Fold-change AT4G36110 auxin-responsive protein: 1.16
  Fold-change AT4G36780 brassinosteroid signalling positive regulator-related: 0.49
  Fold-change AT4G37240 expressed protein: 0.79
  Fold-change AT4G37290 expressed protein: 0.95
  Fold-change AT4G37590 phototropic-responsive NPH3 family protein: 1.04
  Fold-change AT4G38840 auxin-responsive protein (SAUR14): 1.01
  Fold-change AT4G38850 auxin-responsive protein (SAUR-AC1): 1.00
  Fold-change AT4G38860 auxin-responsive protein (SAUR16): 0.79
  Fold-change AT4G39400 brassinosteroid insensitive 1 (BRI1): 0.71
  Fold-change AT5G02020 expressed protein: 1.01
  Fold-change AT5G05690 cytochrome P450 90A1 (CYP90A1) (CYP90) (CPD): 0.63
  Fold-change AT5G07690 myb family transcription factor (MYB29): 0.58
  Fold-change AT5G08130 basic helix-loop-helix (bHLH) family protein (BIM2): 0.76
  Fold-change AT5G12050 expressed protein: 0.52
  Fold-change AT5G13180 no apical meristem (NAM) family protein: 0.77
  Fold-change AT5G13740 sugar transporter family protein: 0.81
  Fold-change AT5G14730 expressed protein: 0.38
  Fold-change AT5G16200 50S ribosomal protein-related: 0.37
  Fold-change AT5G16980 NADP-dependent oxidoreductase: 1.11
  Fold-change AT5G18750 DNAJ heat shock N-terminal domain-containing protein: 1.91
  Fold-change AT5G19200 short-chain dehydrogenase/reductase (SDR) family protein: 1.00
  Fold-change AT5G19340 expressed protein: 0.83
  Fold-change AT5G24030 C4-dicarboxylate transporter/malic acid transport family protein: 2.35
  Fold-change AT5G24660 expressed protein: 2.43
  Fold-change AT5G25240 expressed protein: 0.74
  Fold-change AT5G25930 leucine-rich repeat family protein: 2.65
  Fold-change AT5G27350 sugar-porter family protein 1 (SFP1): 1.07
  Fold-change AT5G27670 histone H2A: 0.79
  Fold-change AT5G38310 expressed protein: 1.00
  Fold-change AT5G38990; AT5G39000 [AT5G38990, protein kinase family protein: 1.40
  Fold-change AT5G39050 transferase family protein: 1.49
  Fold-change AT5G39610 no apical meristem (NAM) family protein: 0.72
  Fold-change AT5G39970 expressed protein: 1.42
  Fold-change AT5G42830 transferase family protein: 1.03
  Fold-change AT5G47370 homeobox-leucine zipper protein 2 (HAT2): 0.51
  Fold-change AT5G48070 putative xyloglucan endotransglycosylase/hydrolase: 1.48
  Fold-change AT5G48540 33 kDa secretory protein-related: 2.45
  Fold-change AT5G51550 phosphate-responsive 1 family protein: 1.02
  Fold-change AT5G54490 calcium-binding EF-hand protein, putative: 0.73
  Fold-change AT5G54860 integral membrane transporter family protein: 1.69
  Fold-change AT5G55970 zinc finger (C3HC4-type RING finger) family protein: 0.96
  Fold-change AT5G56980 expressed protein: 0.43
  Fold-change AT5G57190 phosphatidylserine decarboxylase: 1.32
  Fold-change AT5G57780 expressed protein: 0.35
  Fold-change AT5G59080 expressed protein: 0.46
  Fold-change AT5G60200 Dof-type zinc finger domain-containing protein: 1.36
  Fold-change AT5G60270 lectin protein kinase family protein: 0.96
  Fold-change AT5G60630 expressed protein: 0.99
  Fold-change AT5G61600 encodes a member of the ERF (ethylene response factor): 0.53
  Fold-change AT5G62360 invertase/pectin methylesterase inhibitor family protein: 0.52
  Fold-change AT5G65310 homeobox-leucine zipper protein 5 (HB-5)/HD-ZIP transcription factor 5: 0.90
  Fold-change AT5G66420 expressed protein: 0.92
  Fold-change AT5G66590 allergen V5/Tpx-1-related family protein: 0.53
  Fold-change AT5G67450 zinc finger (C2H2 type) protein 1 (AZF1): 6.17
245479_at, Cluster 6
  Fold-change of gene AT4G16140 (proline-rich family protein): 1.16
245543_at, Cluster 7
  Fold-change of gene AT4G15260 (UDP-glucoronosyl/UDP-glucosyl transferase family protein): 1.41
245885_at, Cluster 5
  Fold-change of gene AT5G09440 (phosphate-responsive protein, putative): 0.38
246389_at, Cluster 10
  Fold-change of gene AT1G77380 (amino acid carrier): 1.32
246516_at, Cluster 5
  Fold-change of gene AT5G15740 (expressed protein): 0.78
247177_at, Cluster 5
  Fold-change of gene AT5G65300 (expressed protein): 0.31
247205_at, Cluster 10
  Fold-change of gene AT5G64890 (expressed protein): 1.01
247351_at, Cluster 9
  Fold-change of gene AT5G63790 (no apical meristem (NAM) family protein): 0.88
247444_at, Cluster 7
  Fold-change of gene AT5G62630 (expressed protein): 1.62
247601_at, Cluster 10
  Fold-change of gene AT5G60850 (Dof-type zinc finger domain-containing protein): 0.51
247704_at, Cluster 9
  Fold-change of gene AT5G59510 (expressed protein): 1.00
247774_at, Cluster 5
  Fold-change of gene AT5G58660 (oxidoreductase. 2OG-Fe(II) oxygenase family protein): 1.15
248190_at, Cluster 5
  Fold-change of gene AT5G54120 (expressed protein): 0.82
248191_at, Cluster 5
  Fold-change of gene AT5G54130 (calcium-binding EF hand family protein): 0.84
248282_at, Cluster 6
  Fold-change of gene AT5G52900 (expressed protein): 1.70
248646_at, Cluster 9
  Fold-change of gene AT5G49100 (expressed protein): 0.72
250012_x_at, Cluster 6
  Fold-change of gene AT5G18060 (auxin-responsive protein): 1.00
250493_at, Cluster 9
  Fold-change of gene AT5G09800 (U-box domain-containing protein): 1.04
250537_at, Cluster 8
  Fold-change of gene AT5G08565 (expressed protein): 0.87
250907_at, Cluster 5
  Fold-change of gene AT5G03670 (expressed protein): 0.61
251072_at, Cluster 5
  Fold-change of gene AT5G01740 (expressed protein): 0.33
251176_at, Cluster 10
  Fold-change of gene AT3G63380 (calcium-transporting ATPase): 0.85
251342_at, Cluster 9
  Fold-change of gene AT3G60690 (auxin-responsive family protein): 0.91
252586_at, Cluster 10
  Fold-change of gene AT3G45610 (Dof-type zinc finger domain): 0.94
252646_at, Cluster 5
  Fold-change of gene AT3G44610 (protein kinase family protein): 0.83
253255_at, Cluster 6
  Fold-change of gene AT4G34760 (auxin-responsive family protein): 1.80
253281_at, Cluster 7
  Fold-change of gene AT4G34138 (UDP-glucoronosyl/UDP-glucosyl transferase family protein): 1.52
253483_at, Cluster 5
  Fold-change of gene AT4G31910 (transferase family protein): 1.46
253617_at, Cluster 5
  Fold-change of gene AT4G30410 (expressed protein): 0.94
253629_at, Cluster 5
  Fold-change of gene AT4G30450 (glycine-rich protein): 0.84
253999_at, Cluster 9
  Fold-change of gene AT4G26200 (1-aminocyclopropane-1-carboxylate synthase): 1.11
255403_at, Cluster 6
  Fold-change of gene AT4G03400 (auxin-responsive GH3 family protein): 0.81
255443_at, Cluster 7
  Fold-change of gene AT4G02700 (sulfate transporter): 1.76
255926_at, Cluster 8
  Fold-change of gene AT1G22190 (AP2 domain-containing transcription factor): 0.45
256528_at, Cluster 6
  Fold-change of gene AT1G66140 (zinc finger (C2H2 type) family protein): 0.87
256762_at, Cluster 8
  Fold-change of gene AT3G25655 (expressed protein): 1.00
256818_at, Cluster 7
  Fold-change of gene AT3G21420 (oxidoreductase, 2OG-Fe(II) oxygenase family protein): 1.13
257066_at, Cluster 5
  Fold-change of gene AT3G18280 (protease inhibitor/seed storage/lipid transfer protein): 1.03
257506_at, Cluster 6
  Fold-change of gene AT1G29440 (auxin-responsive family protein): 0.96
257746_at, Cluster 5
  Fold-change of gene AT3G29200 (chorismate mutase, chloroplast (CM1)): 0.83
259364_at, Cluster 8
  Fold-change of gene AT1G13260 (DNA-binding protein RAV1 (RAV1)): 0.32
259773_at, Cluster 6
  Fold-change of gene AT1G29500 (auxin-responsive protein): 1.01
259783_at, Cluster 6
  Fold-change of gene AT1G29510 (auxin-responsive protein): 1.02
259784_at, Cluster 6
  Fold-change of gene AT1G29450 (auxin-responsive protein): 0.99
259787_at, Cluster 6
  Fold-change of gene AT1G29460 (auxin-responsive protein): 1.23
259875_s_at, Cluster 7
  Fold-change of gene AT1G76690; AT1G76680 ([AT1G76690, 12-oxophytodienoate reductase (OPR2)): 1.95
259985_at, Cluster 8
  Fold-change of gene AT1G76620 (expressed protein): 0.90
260243_at, Cluster 10
  Fold-change of gene AT1G63720 (expressed protein): 0.92
260727_at, Cluster 8
  Fold-change of gene AT1G48100 (glycoside hydrolase family 28 protein): 0.92
261023_at, Cluster 7
  Fold-change of gene AT1G12200 (flavin-containing monooxygenase family protein): 1.44
261203_at, Cluster 6
  Fold-change of gene AT1G12845 (expressed protein): 1.66
261768_at, Cluster 6
  Fold-change of gene AT1G15550 (gibberellin 3-beta-dioxygenase): 1.12
261892_at, Cluster 9
  Fold-change of gene AT1G80840 (WRKY family transcription factor): 0.43
262040_at, Cluster 6
  Fold-change of gene AT1G80080 (leucine-rich repeat family protein): 1.56
262050_at, Cluster 8
  Fold-change of gene AT1G80130 (expressed protein): 0.90
262505_at, Cluster 10
  Fold-change of gene AT1G21680 (expressed protein): 0.82
262543_at, Cluster 6
  Fold-change of gene AT1G34245 (expressed protein): 1.69
263126_at, Cluster 7
  Fold-change of gene AT1G78460 (SOUL heme-binding family protein): 1.01
264279_s_at, Cluster 7
  Fold-change of gene AT1G78820; AT1G78830 ([AT1G78820, curculin-like (mannose-binding) lectin family protein): 1.27
